{"source": "patent US20040132779A1", "about": "“Microsomal Triglyceride transfer protein inhibitor” (Pfizer Inc, priority 2002, published 2004)", "assay": "Reduction of food intake assay", "format": "in vivo", "settings": "beagles, oral gavage, 0.1, 0.25 or 0.5 mg/kg, Days 0 to 6", "method": "Reduction of Food Intake Assay\nHealthy, young adult (1-3 years of age) male and female beagles (Marshall Farms, North Rose, New York, N.Y. 14516) weighing 13-18 kg at the start of the treatment period are employed as test subjects.\nThe test compound is provided as a powder. The dosing solution, administered by oral gavage, is provided employing a 70/30 polyethylene glycol 400/water solution as the test vehicle. The dosing solution is prepared at 0.1 to 0.5 mg/ml activity so that 1 ml is delivered per kg body weight at dosages of 0.1 to 0.5 mg/kg. Following a seven day acclimation period, a ten day evaluation study is effected.\nThe study consists of three groups of animals containing 2 male and 2 female dogs, each. Each group of four animals is randomly assigned to receive 0.1, 0.25 or 0.5 mg/kg test compound. On Days 0 to 6, each dog receives the dosing solution administered as a single dose at Time 0 on each dosing day via a feeding tube. This is followed by a 10 ml water rinse to ensure total delivery of dosing solution. Each test animal is permitted ad libitum access to water and IAMS Mini-Chunks® (The Iams Company, P.O. Box 14597, Dayton, Ohio) dry food each day during the study and approximately 0.5-1 hours post-dose."}
{"smiles": "Cc1cc(CNC(=O)[C@@H](NC(=O)C(F)(F)F)c2ccccc2)ccc1NC(=O)c1ccccc1-c1ccc(C(F)(F)F)cc1", "note": "[Example 1A-1, (S) 4′-Trifluoromethyl-biphenyl-2-carboxylic Acid (2-methyl-4-{[2-phenyl-2-(2,2,2-trifluoro-acetylamino)-acetylamino]-methyl}-phenyl)-amide]", "values": [{"measurement": "body weight", "value": "reduction in body weight"}, {"measurement": "fecal fat", "value": "increased fecal fat"}, {"measurement": "food intake", "value": "reduction in food intake"}, {"measurement": "serum cholesterol", "value": "reduction in serum cholesterol"}]}
